In patent publication US20260049068A1, “Substituted Tetrazolyl Compounds Useful as T Cell Activators” (BRISTOL-MYERS SQUIBB COMPANY, priority 2022, published 2026):
pEC50, pIC50: −log10 of the molar value.

Molecular target: Full length human DGKα (Homo sapiens (Human), UniProt P23743);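 note: ADP-Glo luminescence assay of ADP formed by 5 nM full-length DGKα on extruded PS/DAG/PC liposomes with 150 µM ATP, 1 h reaction, 11-point inhibitor titration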
Assay: not given
Settings: not given

Full length human DGKα, sequence (P23743 other isoform, or with tags, fused parts or gaps): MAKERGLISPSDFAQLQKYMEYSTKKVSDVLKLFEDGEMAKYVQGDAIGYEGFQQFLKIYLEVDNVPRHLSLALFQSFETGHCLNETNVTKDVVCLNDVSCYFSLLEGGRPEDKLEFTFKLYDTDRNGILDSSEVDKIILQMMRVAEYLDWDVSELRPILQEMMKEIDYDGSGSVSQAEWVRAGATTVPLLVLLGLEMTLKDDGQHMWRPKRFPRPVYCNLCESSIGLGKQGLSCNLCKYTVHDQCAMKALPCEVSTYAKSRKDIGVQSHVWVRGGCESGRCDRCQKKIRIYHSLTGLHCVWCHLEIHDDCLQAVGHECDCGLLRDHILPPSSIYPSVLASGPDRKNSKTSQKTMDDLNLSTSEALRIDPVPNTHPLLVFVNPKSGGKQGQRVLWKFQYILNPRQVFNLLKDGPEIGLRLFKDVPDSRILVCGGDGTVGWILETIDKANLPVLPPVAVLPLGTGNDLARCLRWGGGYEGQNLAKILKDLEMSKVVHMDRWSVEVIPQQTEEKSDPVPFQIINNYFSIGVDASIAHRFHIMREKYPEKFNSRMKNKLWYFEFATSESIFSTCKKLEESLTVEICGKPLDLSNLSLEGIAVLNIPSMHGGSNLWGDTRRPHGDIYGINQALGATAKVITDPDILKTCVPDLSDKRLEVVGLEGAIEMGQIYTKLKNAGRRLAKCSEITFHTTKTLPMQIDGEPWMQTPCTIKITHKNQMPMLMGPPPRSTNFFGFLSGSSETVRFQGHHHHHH

| pIC50 | Compound |
| --- | --- |
| 7.05 | CCN(Cc1nnnn1-c1ccc(Cl)c(C#N)c1)C1CCCCC1 [Example 13, 2-chloro-5-(5-((cyclohexyl(ethyl)amino)methyl)-1H-tetrazol-1-yl)benzonitrile] |
| 5.70 | CN(Cc1nnnn1-c1ccc(Cl)c(C#N)n1)C1CCCCC1 [Example 14, 3-chloro-6-(5-((cyclohexyl(methyl)amino)methyl)-1H-tetrazol-1-yl)picolinonitrile] |
| 5.51 | N#Cc1nc(-n2nnnc2CN(CC2CC2)C2CCCCC2)ccc1Cl [Example 15, 3-chloro-6-(5-((cyclohexyl (cyclopropylmethyl)amino)methyl)-1H-tetrazol-1-yl) picolinonitrile] |
| 5.57 | CCN(Cc1nnnn1-c1ccc(Cl)c(C#N)n1)C1CCCCC1 [Example 16, 3-chloro-6-(5-((cyclohexyl(ethyl)amino)methyl)-1H-tetrazol-1-yl)picolinonitrile] |
| 5.01 | CN(Cc1nnnn1-c1cccc(C(F)(F)F)c1)C1CCCCC1 [Example 18, N-methyl-N-((1-(3-(trifluoromethyl)phenyl)-1H-tetrazol-5-yl)methyl) cyclohexanamine] |
| 5.28 | CN(Cc1nnnn1-c1cccc(F)c1)C1CCCCC1 [Example 19, N-((1-(3-fluorophenyl)-1H-tetrazol-5-yl)methyl)-N-methylcyclohexanamine] |
| 5.43 | CN(Cc1nnnn1-c1ccc(F)c(C#N)c1)C1CCCCC1 [Example 21, 5-(5-((cyclohexyl (methyl)amino)methyl)-1H-tetrazol-1-yl)-2-fluorobenzonitrile] |
| 5.19 | CN(Cc1nnnn1-c1ccc(C(F)(F)F)nc1)C1CCCCC1 [Example 23, N-methyl-N-((1-(6-(trifluormethyl)pyridin-3-yl)-1H-tetrazol-5-yl)methyl) cyclohexanamine] |
| 6.05 | COc1ccc(-n2nnnc2CN(C)C2CCCCC2)cc1C#N [Example 24, 5-(5-((cyclohexyl(methyl)amino)methyl)-1H-tetrazol-1-yl)-2-methoxybenzonitrile] |
| 6.85 | Cc1ccc(-n2nnnc2CN(C)C2CCCCC2)cc1C#N [Example 25, 5-(5-((cyclohexyl(methyl)amino)methyl)-1H-tetrazol-1-yl)-2-methylbenzonitrile] |
| 5.46 | CN(Cc1nnnn1-c1ccc(Cl)cc1)C1CCCCC1 [Example 29, N-((1-(4-chlorophenyl)-1H-tetrazol-5-yl)methyl)-N-methylcyclohexanamine] |

Molecular target: DGKα-YFP in Jurkat cells (Homo sapiens (Human), UniProt P23743)
Assay: In vitro DGKα translocation assay
Type: cell-based
Settings: 1 hour at 37° C., top concentration 10 μM, read-out: DGKalpha Translocation EC50
From the text: Jurkat cells were transduced with lentiviral constructs overexpressing DGKα-YFP (N-terminal tagged), selected by puromycin, and were FACs sorted to establish stable lines expressing each isoform (Jurkat-DGKα-YFP=BXA-212700-01-001, Jurkat-DGKz-YFP=BXA-212701-01-001). Cell lines were maintained in growth media (RPMI supplemented with 10% FBS and pen/strep). All translocation assays were run in assay media (RPMI supplemented with 10% FBS and no antibiotics).
For translocation assays cells were plated onto Perkin Elmer CellCarrier-384 Ultra Microplates (Perkin Elmer cat #6057500) at a density of 30,000 cells/well, in a volume of 40 μL of assay media. Compounds were then transferred to the cells by an Echo Acoustic Liquid Handler (Echo 655). […] Treated cells were then incubated at 37° C. for 1 hour. Cells were then fixed with 4% formaldehyde (Thermo cat #28906) for 15 minutes, centrifuged briefly to increase cell retention (250 rpm for 5 minutes), and then washed 3× with 50 μL PBS. Cells were then stained with Hoechst, and washed 2× with 50 ul PBS. Next, 50 μL PBS was added to each well, plates were sealed, and plates were imaged on an Opera Phenix High Content screening system. Imaging was done with the 40× water objective. The YFP channel was set at 100% power for […], 10 regions/well were imaged and analyzed. Data analysis was done with Columbus Image Analysis software (Perk-in Elmer).

DGKα-YFP in Jurkat cells, sequence (P23743 whole entry): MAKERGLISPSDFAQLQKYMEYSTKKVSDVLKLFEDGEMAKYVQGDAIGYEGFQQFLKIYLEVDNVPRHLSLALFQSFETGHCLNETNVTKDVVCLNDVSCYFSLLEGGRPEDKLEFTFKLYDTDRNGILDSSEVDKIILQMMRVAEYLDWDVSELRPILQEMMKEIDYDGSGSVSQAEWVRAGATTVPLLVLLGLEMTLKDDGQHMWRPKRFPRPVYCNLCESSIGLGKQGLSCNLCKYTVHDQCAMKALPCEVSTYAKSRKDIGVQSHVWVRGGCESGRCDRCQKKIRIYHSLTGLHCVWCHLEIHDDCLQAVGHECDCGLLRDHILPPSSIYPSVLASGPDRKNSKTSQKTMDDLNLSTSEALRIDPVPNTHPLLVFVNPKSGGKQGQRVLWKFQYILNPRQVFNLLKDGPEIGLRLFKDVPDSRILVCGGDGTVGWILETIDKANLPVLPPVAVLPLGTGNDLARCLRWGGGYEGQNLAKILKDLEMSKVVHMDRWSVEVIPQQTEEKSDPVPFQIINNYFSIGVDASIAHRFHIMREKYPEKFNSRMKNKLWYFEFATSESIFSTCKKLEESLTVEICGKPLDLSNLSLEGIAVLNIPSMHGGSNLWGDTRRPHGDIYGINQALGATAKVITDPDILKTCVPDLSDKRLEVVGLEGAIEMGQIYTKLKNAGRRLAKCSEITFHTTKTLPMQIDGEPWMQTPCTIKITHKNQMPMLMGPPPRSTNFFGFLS

| pEC50 | Compound |
| --- | --- |
| 6.92 | CCN(Cc1nnnn1-c1ccc(Cl)c(C#N)c1)C1CCCCC1 [Example 13, 2-chloro-5-(5-((cyclohexyl(ethyl)amino)methyl)-1H-tetrazol-1-yl)benzonitrile] |
| 5.74 | CN(Cc1nnnn1-c1ccc(Cl)c(C#N)n1)C1CCCCC1 [Example 14, 3-chloro-6-(5-((cyclohexyl(methyl)amino)methyl)-1H-tetrazol-1-yl)picolinonitrile] |
| 5.68 | N#Cc1nc(-n2nnnc2CN(CC2CC2)C2CCCCC2)ccc1Cl [Example 15, 3-chloro-6-(5-((cyclohexyl (cyclopropylmethyl)amino)methyl)-1H-tetrazol-1-yl) picolinonitrile] |
| < 5.00 | CCN(Cc1nnnn1-c1ccc(Cl)c(C#N)n1)C1CCCCC1 [Example 16, 3-chloro-6-(5-((cyclohexyl(ethyl)amino)methyl)-1H-tetrazol-1-yl)picolinonitrile] |
| < 5.30 | CN(Cc1nnnn1-c1cccc(C(F)(F)F)c1)C1CCCCC1 [Example 18, N-methyl-N-((1-(3-(trifluoromethyl)phenyl)-1H-tetrazol-5-yl)methyl) cyclohexanamine] |
| < 5.30 | CN(Cc1nnnn1-c1cccc(F)c1)C1CCCCC1 [Example 19, N-((1-(3-fluorophenyl)-1H-tetrazol-5-yl)methyl)-N-methylcyclohexanamine] |
| 5.92 | CN(Cc1nnnn1-c1ccc(F)c(C#N)c1)C1CCCCC1 [Example 21, 5-(5-((cyclohexyl (methyl)amino)methyl)-1H-tetrazol-1-yl)-2-fluorobenzonitrile] |
| < 5.30 | CN(Cc1nnnn1-c1ccc(C(F)(F)F)nc1)C1CCCCC1 [Example 23, N-methyl-N-((1-(6-(trifluormethyl)pyridin-3-yl)-1H-tetrazol-5-yl)methyl) cyclohexanamine] |
| 5.77 | COc1ccc(-n2nnnc2CN(C)C2CCCCC2)cc1C#N [Example 24, 5-(5-((cyclohexyl(methyl)amino)methyl)-1H-tetrazol-1-yl)-2-methoxybenzonitrile] |
| 6.46 | Cc1ccc(-n2nnnc2CN(C)C2CCCCC2)cc1C#N [Example 25, 5-(5-((cyclohexyl(methyl)amino)methyl)-1H-tetrazol-1-yl)-2-methylbenzonitrile] |
| 6.24 | CN(Cc1nnnn1-c1ccc(Cl)cc1)C1CCCCC1 [Example 29, N-((1-(4-chlorophenyl)-1H-tetrazol-5-yl)methyl)-N-methylcyclohexanamine] |

Molecular target: Near full length human DGKα(S9-S727) (Homo sapiens (Human), UniProt P23743)
Assay: DGKα (Near Full Length) ADP Glo assay
Type: biochemical
Settings: extruded liposomes 5% or 10% DAG, 150 μM ATP, 5 nM enzyme; read-out: Near Full Length DGKalpha ADPGLO IC50
Description: The reactions were carried out at 150 μM ATP.
Luminescence was recorded using an EnVision microplate reader.

Near full length human DGKα(S9-S727), sequence (P23743 9-727): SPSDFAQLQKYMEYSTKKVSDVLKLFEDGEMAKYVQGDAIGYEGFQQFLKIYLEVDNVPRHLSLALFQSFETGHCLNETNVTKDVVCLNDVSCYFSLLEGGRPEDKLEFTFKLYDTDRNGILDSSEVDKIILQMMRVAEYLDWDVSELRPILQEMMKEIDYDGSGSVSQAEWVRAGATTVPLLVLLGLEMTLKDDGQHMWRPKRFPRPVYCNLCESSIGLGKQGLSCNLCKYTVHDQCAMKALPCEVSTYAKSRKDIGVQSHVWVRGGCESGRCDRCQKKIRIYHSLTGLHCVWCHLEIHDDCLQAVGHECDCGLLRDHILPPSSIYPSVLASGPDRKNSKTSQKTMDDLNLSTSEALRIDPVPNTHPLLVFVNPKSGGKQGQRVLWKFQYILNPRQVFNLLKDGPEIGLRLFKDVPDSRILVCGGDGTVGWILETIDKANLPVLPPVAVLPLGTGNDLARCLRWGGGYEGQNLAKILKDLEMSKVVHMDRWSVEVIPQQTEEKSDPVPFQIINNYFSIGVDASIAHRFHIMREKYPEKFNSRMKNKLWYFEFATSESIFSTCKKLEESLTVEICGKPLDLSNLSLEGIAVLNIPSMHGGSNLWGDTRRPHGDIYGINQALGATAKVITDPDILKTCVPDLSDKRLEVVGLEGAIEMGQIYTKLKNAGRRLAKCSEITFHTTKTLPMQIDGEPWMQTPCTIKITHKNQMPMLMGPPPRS

| pIC50 | Compound |
| --- | --- |
| 7.10 | CCN(Cc1nnnn1-c1ccc(Cl)c(C#N)c1)C1CCCCC1 [Example 13, 2-chloro-5-(5-((cyclohexyl(ethyl)amino)methyl)-1H-tetrazol-1-yl)benzonitrile] |
| 5.96 | CN(Cc1nnnn1-c1ccc(Cl)c(C#N)n1)C1CCCCC1 [Example 14, 3-chloro-6-(5-((cyclohexyl(methyl)amino)methyl)-1H-tetrazol-1-yl)picolinonitrile] |
| 5.37 | N#Cc1nc(-n2nnnc2CN(CC2CC2)C2CCCCC2)ccc1Cl [Example 15, 3-chloro-6-(5-((cyclohexyl (cyclopropylmethyl)amino)methyl)-1H-tetrazol-1-yl) picolinonitrile] |
| 5.59 | CCN(Cc1nnnn1-c1ccc(Cl)c(C#N)n1)C1CCCCC1 [Example 16, 3-chloro-6-(5-((cyclohexyl(ethyl)amino)methyl)-1H-tetrazol-1-yl)picolinonitrile] |
| 4.96 | CN(Cc1nnnn1-c1cccc(C(F)(F)F)c1)C1CCCCC1 [Example 18, N-methyl-N-((1-(3-(trifluoromethyl)phenyl)-1H-tetrazol-5-yl)methyl) cyclohexanamine] |
| 5.24 | CN(Cc1nnnn1-c1cccc(F)c1)C1CCCCC1 [Example 19, N-((1-(3-fluorophenyl)-1H-tetrazol-5-yl)methyl)-N-methylcyclohexanamine] |
| 5.51 | CN(Cc1nnnn1-c1ccc(F)c(C#N)c1)C1CCCCC1 [Example 21, 5-(5-((cyclohexyl (methyl)amino)methyl)-1H-tetrazol-1-yl)-2-fluorobenzonitrile] |
| 5.44 | CN(Cc1nnnn1-c1ccc(C(F)(F)F)nc1)C1CCCCC1 [Example 23, N-methyl-N-((1-(6-(trifluormethyl)pyridin-3-yl)-1H-tetrazol-5-yl)methyl) cyclohexanamine] |
| 6.07 | COc1ccc(-n2nnnc2CN(C)C2CCCCC2)cc1C#N [Example 24, 5-(5-((cyclohexyl(methyl)amino)methyl)-1H-tetrazol-1-yl)-2-methoxybenzonitrile] |
| 6.39 | Cc1ccc(-n2nnnc2CN(C)C2CCCCC2)cc1C#N [Example 25, 5-(5-((cyclohexyl(methyl)amino)methyl)-1H-tetrazol-1-yl)-2-methylbenzonitrile] |
| 5.77 | CN(Cc1nnnn1-c1ccc(Cl)cc1)C1CCCCC1 [Example 29, N-((1-(4-chlorophenyl)-1H-tetrazol-5-yl)methyl)-N-methylcyclohexanamine] |
